From patent US8329425B2, “Method and system for detection of chloramphenicol” (priority 2011, dated 2012)

Assays:
[1] = target: T1, CAT I V28W mutant (Escherichia coli, UniProt P62577, C126A/C196A/C212A/C31A/C91A/V28W); conditions: chloramphenicol 10 μM; CAT I V28W and fluorescein-linked chloramphenicol fixed at 0.15 μM; excitation 494 nm
Description: Fluorescence measurements were performed on a Perkin Elmer LS 50B spectrofluorometer with the excitation wavelength set at 494 nm and the excitation and emission slit width set at 5 nm.

[2] = target: T1, CAT I V28W mutant; assay: Fluorescence response of fluorescein-linked chloramphenicol to CAT I V28W mutant; type: binding, E. coli; set-up: His6 (N); made in house; host or cells: E. coli BL21 (DE3); conditions: 0.15 μM fluorescein-linked chloramphenicol, 1.5 μM CAT I V28W (FIG. 6); excitation 494 nm, slit width 5 nm
Description: The excitation wavelength is 494 nm and the slit width is 5 nm.

Structure (SMILES)	increase in fluorescence [1]	fluorescence of fluorescein-linked chloramphenicol in the presence of CAT I V28W mutant [2]
O=C(N[C@H](CO)[C@H](O)c1ccc([N+](=O)[O-])cc1)C(Cl)Cl [chloramphenicol]	~10%	
O=C(CCCCCNC(=S)Nc1ccc(-c2c3ccc(=O)cc-3oc3cc(O)ccc23)c(C(=O)O)c1)N[C@H](CO)[C@H](O)c1ccc([N+](=O)[O-])cc1 [fluorescein-linked chloramphenicol, 5-(3-(6-(((1R,2R)-1,3-dihydroxy-1-(4-nitrophenyl)propan-2-yl)amino)-6-oxohexyl)thioureido)-2-(6-hydroxy-3-oxo-3H-xanthen-9-yl)benzoic acid]		significantly reduced
